From patent publication US20070122376A1, “Pheromones and method of preventing infestation of Contarinia nasturtii” (priority 2004, published 2007)

Tests used:
[1] = tested on: male C. nasturtii; experiment: Wind tunnel assay of male response (landing on odour source); assay type: in vivo, Contarinia nasturtii; settings: for landings on the odor source, response to single component: each component tested individually at the concentrations indicated (FIG. 4), N>=20; for males flying towards the odour source: single components tested individually
Procedure: Calling females were collected from the laboratory culture and submersed in batches in hexane (p.a. grade) for 15 min at room temperature. The supernatant was then decanted and concentrated to the highest concentration tested by blowing off the hexane with N2.
Wind tunnel experiments were performed in the 2nd to 4th hour of the photophase at 22° C. and 73% r.h. in a wind tunnel described in detail by Rauscher et al. (1984). Compounds were diluted in hexane (p.a. grade). For the bioassays, 10 p 1 of the stimulus to be tested was applied onto a piece of fitter paper (Chromatographiepapier “Schleicher & Schuell AG” Auer-Bittmann Soulié AG, Zurich, Switzerland, 69.2 gr/m2, 1 cm^2)which was then placed in the air stream at least 20 sec before the first male was tested. For each stimulus, a series of five males were tested individually, requiring a total of 5-10 min for each series. For each series, a new piece of filter paper was loaded with the respective stimulus.
Males were kept individually in glass tubes (10 cm, 15 mm i.d.) closed at one end with a piece of screen (mesh size 1×1 mm) until they were tested. With these tubes they were transferred into the wind tunnel, where the tube was placed on a pole in horizontal position with the opening upwind, at a distance of 130 cm downwind from the odor source. Time recording was then started and the following steps recorded. Activation by wing-fanning, take off, directed flight towards the odor source, flights closer than 30 cm from the source (“close in”), landing on the source or elsewhere. The test was stopped when no activity or take off was registered during […] or when the insect landed elsewhere.
Of the recorded parameters only the number of successful landings on the source were analyzed

[2] = tested on: male antenna; experiment: GC-EAD electrophysiological recording of male antennal response; design: species or system Contarinia nasturtii; settings: natural peaks of ovipositor extract, identified by mass spectra and coelution with synthetics
Procedure: The pots with infested soil were put in glass cages (28×28×33 cm) and kept at L/D 18/6, 25° C., and RH 70% for the adults to emerge. After emergence, males and females were transferred to separate cages. Females were kept under the conditions mentioned and males were kept at L/D 18/6, 15° C., and RH 75%. […] The ovipositors were collected in a vial kept in liquid nitrogen and then extracted for 1-2 min redistilled hexane (LabScan). Extracts were kept in sealed glass capillaries at −18° C. until use.
Male antennal response to ovipositor extracts was analyzed by gas chromatography 25 with electroantennographic detection (GC-EAD). The GC used was a Hewlett Packard 6890 GC with flame ionization detection and an Innowax column (30m×0.25 mm ID, Hewlett Packard, USA). The column temperature was programmed from 80° C. (2 min hold) to 230° C. at 10° C./min. The antennal recordings were made using a Plexiglass holder with two wells connected to an amplifier by gold wire electrodes (JoAC, Lund, Sweden; Zhang et al., 1997; Hillbur, 2001). Male insects were mounted in the holder as described by Hillbur et al. (2000). […] Antennal signals were amplified (JoAC) before they were recorded and analyzed with ElectroAntennoGraphy software (Syntech, Hilversum, The Netherlands).

Structure (SMILES) | most attractive concentration of (2S)-acetoxyundecane in blend ([1]; blends with 1.5 ng/dispenser (2S,9S)- and 3.0 ng/dispenser (2S,10S)-diacetoxyundecane) | effect of higher concentrations of (2S)-acetoxyundecane on proportion of male landing ([1]; concentrations higher than 0.03 ng/dispenser in blend with 1.5 ng 2S,9S and 3.0 ng 2S,10S) | landings on the odor source, response to single component [1] | males flying towards the odour source [1] | male antennal response (GC-EAD) [2]
CCCCCCCCC[C@H](C)OC(C)=O [(2S)-acetoxyundecane, (2S)-Acetoxyundecane] | 0.03 ng/dispenser | inhibitory | 0 | no males flew towards the odour source | 
CC[C@@H](CCCCCC[C@H](C)OC(C)=O)OC(C)=O [(2S,9S)-diacetoxyundecane, (2S,9S)-Diacetoxyundecane] |  |  | 0 | no males flew towards the odour source | EAD-active
CC(=O)O[C@@H](C)CCCCCCC[C@H](C)OC(C)=O [(2S,10S)-diacetoxyundecane, (2S,10S)-Diacetoxyundecane] |  |  | 0 | no males flew towards the odour source | EAD-active
